{"source": "PubChem BioAssay (NCI)", "test_system": "P388/ADR leukemia", "test": "NCI tumour cell line growth inhibition, 48 h", "note": "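Cells were grown in 96-well plates and exposed to each compound for 48 hours at five concentrations; endpoints were interpolated linearly between bracketing concentrations, or set to the highest concentration if not reached. TGI: concentration producing complete growth inhibition.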"}
{"compound": "NC(=O)c1[nH]nc(C2OC(CO)C(O)C2O)c1O", "note": "(stereo unspecified)", "values": [{"measurement": "TGI", "value": 241, "unit": "µM"}]}
